Measurements from PubChem BioAssay (NCI).
In brackets after ≈: the same amount, converted by molar mass.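 Exposure lasted 48 hours, with cells grown in 96-well plates and compounds tested at five concentrations. GI50: concentration for 50% inhibition of growth. TGI marks complete inhibition of growth.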

Legend:
Test in all cases: NCI-60 cell line screen, 48 h
[1] = system: T-47D breast
[2] = system: SW-620 colon
[3] = system: SF-268 CNS
[4] = system: ACHN renal
[5] = system: MALME-3M melanoma
[6] = system: NCI/ADR-RES ovarian
[7] = system: HCT-15 colon
[8] = system: HOP-62 NSCLC
[9] = system: OVCAR-5 ovarian
[10] = system: SN12C renal
[11] = system: NCI-H226 lung
[12] = system: RPMI-8226 leukemia
[13] = system: MDA-MB-435
[14] = system: IGROV1 ovarian
[15] = system: SK-MEL-2 melanoma
[16] = system: HOP-92 NSCLC
[17] = system: HT29 colon
[18] = system: TK-10 renal
[19] = system: MOLT-4 leukemia
[20] = system: NCI-H460 lung
[21] = system: SNB-75 CNS
[22] = system: UACC-257 melanoma
[23] = system: UACC-62 melanoma
[24] = system: SK-OV-3 ovarian
[25] = system: RXF 393 renal
[26] = system: SK-MEL-5 melanoma
[27] = system: HL-60(TB) leukemia
[28] = system: COLO 205 colon
[29] = system: KM12 colon
[30] = system: EKVX NSCLC
[31] = system: SK-MEL-28 melanoma
[32] = system: MCF7 breast
[33] = system: MDA-MB-231 breast
[34] = system: OVCAR-8 ovarian
[35] = system: OVCAR-4 ovarian
[36] = system: NCI-H522 lung
[37] = system: A549 NSCLC
[38] = system: HS 578T breast
[39] = system: OVCAR-3 ovarian
[40] = system: K-562 leukemia
[41] = system: U251 CNS
[42] = system: NCI-H23 lung
[43] = system: SF-539 CNS
[44] = system: CCRF-CEM leukemia
[45] = system: LOX IMVI melanoma
[46] = system: SNB-19 CNS
[47] = system: HCC-2998 colon
[48] = system: DU-145 prostate
[49] = system: PC-3 prostate
[50] = system: A498 renal
[51] = system: M14 melanoma
[52] = system: SR leukemia
[53] = system: SF-295 CNS
[54] = system: CAKI-1 renal
[55] = system: 786-0 renal
[56] = system: UO-31 renal
[57] = system: HCT-116 colon
[58] = system: BT-549 breast

Structure (SMILES): O=C1c2c(c3c4ccccc4[nH]c3c3ccc4ccccc4c23)C(=O)N1CCN1CCCCC1
- GI50 [1]: 1.61 µM
- TGI [1]: 7.87 µM
- GI50 [2]: 0.663 µM
- TGI [2]: 4.75 µM
- GI50 [3]: 1.15 µM
- TGI [3]: > 100 µM
- GI50 [4]: 0.335 µM
- TGI [4]: 2.26 µM
- GI50 [5]: 1.33 µM
- TGI [5]: 2.92 µM
- GI50 [6]: 0.797 µM
- TGI [6]: 3.31 µM
- GI50 [7]: 0.963 µM
- TGI [7]: 3.38 µM
- GI50 [8]: 1.06 µM
- TGI [8]: 3.43 µM
- GI50 [9]: 1.52 µM
- TGI [9]: 3.49 µM
- GI50 [10]: 0.447 µM
- TGI [10]: 1.73 µM
- GI50 [11]: 1.23 µM
- TGI [11]: 3.39 µM
- GI50 [12]: 1.78 µM
- TGI [12]: 4.7 µM
- GI50 [13]: 1.72 µM
- TGI [13]: 3.26 µM
- GI50 [14]: 1.25 µM
- TGI [14]: 4.29 µM
- GI50 [15]: 2.25 µM
- TGI [15]: 5.36 µM
- GI50 [16]: 2.67 µM
- TGI [16]: 38.8 µM
- GI50 [17]: 1.72 µM
- TGI [17]: 10.6 µM
- GI50 [18]: 3.38 µM
- TGI [18]: > 100 µM
- GI50 [19]: 0.354 µM
- TGI [19]: 5.35 µM
- GI50 [20]: 0.25 µM
- TGI [20]: 1.45 µM
- GI50 [21]: 2.2 µM
- TGI [21]: 22.6 µM
- GI50 [22]: 1.87 µM
- TGI [22]: 4.23 µM
- GI50 [23]: 1.21 µM
- TGI [23]: 2.59 µM
- GI50 [24]: 0.801 µM
- TGI [24]: > 100 µM
- GI50 [25]: 1.47 µM
- TGI [25]: 3.01 µM
- GI50 [26]: 1.51 µM
- TGI [26]: 3.1 µM
- GI50 [27]: 1.07 µM
- TGI [27]: 3.31 µM
- GI50 [28]: 1.38 µM
- TGI [28]: 8.28 µM
- GI50 [29]: 3.05 µM
- TGI [29]: 25.5 µM
- GI50 [30]: 13.4 µM
- TGI [30]: > 100 µM
- GI50 [31]: 1.65 µM
- TGI [31]: 3.16 µM
- GI50 [32]: 0.0388 µM
- TGI [32]: 2.34 µM
- GI50 [33]: 1.95 µM
- TGI [33]: 5.08 µM
- GI50 [34]: 1.27 µM
- TGI [34]: 4.48 µM
- GI50 [35]: 2.03 µM
- TGI [35]: 5.74 µM
- GI50 [36]: 1.5 µM
- TGI [36]: 5.36 µM
- GI50 [37]: 3.1 µM
- TGI [37]: > 100 µM
- GI50 [38]: 2.04 µM
- TGI [38]: 5.71 µM
- GI50 [39]: 1.99 µM
- TGI [39]: 5.04 µM
- GI50 [40]: 1.33 µM
- TGI [40]: 6.34 µM
- GI50 [41]: 1.05 µM
- TGI [41]: 7.51 µM
- GI50 [42]: 0.741 µM
- TGI [42]: 9.79 µM
- GI50 [43]: 1.41 µM
- TGI [43]: 3.21 µM
- GI50 [44]: 0.272 µM
- TGI [44]: 11.3 µM
- GI50 [45]: 0.894 µM
- TGI [45]: 2.33 µM
- GI50 [46]: 0.94 µM
- TGI [46]: 46.4 µM
- GI50 [47]: 1.95 µM
- TGI [47]: 15.3 µM
- GI50 [48]: 1.05 µM
- TGI [48]: 14.5 µM
- GI50 [49]: 1.68 µM
- TGI [49]: 24.7 µM
- GI50 [50]: 1.18 µM
- TGI [50]: 9.85 µM

Structure (SMILES): O=NC1C(Cl)C2CC1C1C(Br)C(Br)CC21 (centres undefined)
- TGI [1]: > 100 µM
- TGI [2]: > 100 µM
- TGI [3]: > 100 µM
- TGI [4]: > 100 µM
- TGI [5]: > 100 µM
- TGI [6]: > 100 µM
- TGI [7]: > 100 µM
- TGI [8]: > 100 µM
- TGI [9]: > 100 µM
- TGI [10]: > 100 µM
- TGI [11]: > 100 µM
- TGI [12]: 68.6 µM
- TGI [13]: > 100 µM
- TGI [14]: > 100 µM
- TGI [15]: > 100 µM
- TGI [16]: > 100 µM
- TGI [17]: > 100 µM
- TGI [18]: > 100 µM
- TGI [19]: > 100 µM
- TGI [20]: > 100 µM
- TGI [21]: > 100 µM
- TGI [51]: > 100 µM
- TGI [23]: > 100 µM
- TGI [24]: > 100 µM
- TGI [25]: > 100 µM
- TGI [26]: > 100 µM
- TGI [52]: > 100 µM
- TGI [27]: > 100 µM
- TGI [53]: > 100 µM
- TGI [28]: > 100 µM
- TGI [29]: > 100 µM
- TGI [30]: > 100 µM
- TGI [31]: > 100 µM
- TGI [32]: > 100 µM
- TGI [33]: > 100 µM
- TGI [34]: > 100 µM
- TGI [54]: > 100 µM
- TGI [35]: > 100 µM
- TGI [36]: > 100 µM
- TGI [37]: > 100 µM
- TGI [38]: > 100 µM
- TGI [39]: > 100 µM
- TGI [55]: > 100 µM
- TGI [40]: > 100 µM
- TGI [41]: > 100 µM
- TGI [42]: > 100 µM
- TGI [43]: > 100 µM
- TGI [44]: > 100 µM
- TGI [45]: > 100 µM
- TGI [56]: > 100 µM
- TGI [46]: > 100 µM
- TGI [57]: > 100 µM
- TGI [48]: > 100 µM
- TGI [49]: > 100 µM
- TGI [50]: > 100 µM

Structure (SMILES): CC(=O)OC1C=CC(OC(C)=O)C2C1[C@H]1C3C=CC=CC3[C@@H]2S1=O (some centres undefined)
- GI50 [13]: 40.2 µg/mL
- GI50 [58]: 59.8 µg/mL (≈ 172 µM)
- GI50 [47]: 94.2 µg/mL
- GI50 [50]: 53.7 µg/mL
